The test system of data set [1] is laser-induced thrombus in hamster dorsal skin fold venules. Briefly: Laser-induced thrombosis in hamster dorsal skin fold venules, intravital fluorescence microscopy. The format is in vivo. As to conditions: infused. An excerpt:
In the research that led to the invention it was shown that, in PWS vascular analogues (hamster dorsal skin fold venules), the photothermal response is ensued by a hemodynamic response, namely the initiation of primary and secondary hemostasis following laser-induced endovascular damage. There is increasing evidence that misfolded proteins and corollary fibrillar structures referred to as amyloid have the propensity to activate platelets (Herczenik E et al. Arterioscler Thromb Vasc Biol. 2007 July; 27(7):1657-65) and the contact activation pathway (Maas C et al. J Clin Invest. 2008 September; 118(9):3208-18). Inasmuch as thermal coagula are comprised of thermally denatured (i.e., misfolded) proteins, these laser-induced lesions may constitute the basis for the initiation of primary and secondary hemostasis in addition to a thermally afflicted endothelium. […]
FIG. 1: Aggregation of 5,6-carboxyfluorescein (CF)-labeled platelets at the site of laser-induced damage in hamster dorsal skin fold venules as visualized by intravital fluorescence microscopy without (A-F) and with (G-L) priorly infused heparin (Hep). […]

The conditions of data set [2]: not told; cited from earlier work.

The text below walks through data of patent US20120010557A1, “Drug Delivery System for Use in the Treatment of Vascular and Vessel-Related Pathologies” (priority 2009, published 2012).

heparin: the “Effect on laser-induced thrombus formation / lesional size” value in data set [1] is given as “impeding effect on the lesional size”.
For the molecule `CC=CC=CC(=O)OCCCCCCCCCC(=O)OC[C@H](COP(=O)([O-])OCC[N+](C)(C)C)OC(=O)CCCCCCCCCOC(=O)C=CC=CC` [bis-SorbPC, 1,2-bis[10-(2′,4′-hexadienoloxy)decanonyl]-sn-glycero-3-phosphocholine], in data set [2], the “Increase in bilayer permeability” value is on record as “up to 28.000 fold”.
